Data taken from PubChem BioAssay AID651677 (The Scripps Research Institute Molecular Screening Center, 2012).
Activity calls are given as the source filed them. The rule behind the calls is not given here.

target: Perilipin-5 (Homo sapiens) + 1-acylglycerol-3-phosphate O-acyltransferase ABHD5 (Homo sapiens) (UniProt Q00G26+Q8WTS1); assay: ABHD5-PLIN5 interaction inhibitors, dose response, biochemical, luminescence (AID 651677)
Sequence (Q00G26 whole entry, looked up): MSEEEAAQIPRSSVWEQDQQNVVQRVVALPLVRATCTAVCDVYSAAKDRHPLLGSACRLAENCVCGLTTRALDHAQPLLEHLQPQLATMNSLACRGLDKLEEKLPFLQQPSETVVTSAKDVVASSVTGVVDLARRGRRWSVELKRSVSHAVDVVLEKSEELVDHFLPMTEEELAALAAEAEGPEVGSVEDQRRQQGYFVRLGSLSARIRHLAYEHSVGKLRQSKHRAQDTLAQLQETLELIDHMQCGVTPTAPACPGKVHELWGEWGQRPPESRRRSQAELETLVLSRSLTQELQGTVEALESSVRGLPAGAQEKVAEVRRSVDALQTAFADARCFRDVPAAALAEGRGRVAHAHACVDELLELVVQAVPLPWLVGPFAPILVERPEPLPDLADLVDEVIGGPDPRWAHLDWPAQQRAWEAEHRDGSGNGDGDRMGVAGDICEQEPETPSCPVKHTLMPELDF
Sequence (Q8WTS1 whole entry, looked up): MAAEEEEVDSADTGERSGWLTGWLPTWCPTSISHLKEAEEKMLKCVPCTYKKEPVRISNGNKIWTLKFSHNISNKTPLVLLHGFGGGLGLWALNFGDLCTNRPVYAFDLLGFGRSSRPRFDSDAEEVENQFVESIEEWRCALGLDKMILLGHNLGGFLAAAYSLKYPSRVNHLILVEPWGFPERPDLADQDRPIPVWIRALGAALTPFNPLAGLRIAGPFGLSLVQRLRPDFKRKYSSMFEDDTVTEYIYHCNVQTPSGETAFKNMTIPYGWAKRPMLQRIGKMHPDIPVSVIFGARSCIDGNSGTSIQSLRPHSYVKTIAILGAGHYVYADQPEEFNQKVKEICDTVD

Row | Structure (SMILES) | IC50
1 | COc1ccc(NC(=S)N(CCCN2CCCC2)Cc2cccn2Cc2ccc(Cl)cc2)cc1Cl | inactive
2 | CC(=O)Oc1c(Cl)c(N2CCOCC2)c(OC(C)=O)c2ccccc12 | 4280 nM
3 | O=C1NC(=O)N(c2ccccc2F)C(=O)/C1=C/c1ccc(Oc2ccc([N+](=O)[O-])cn2)cc1 | 1470 nM
4 | CSC(=Nc1ccccc1)N=C(SCc1ccccc1)N(C)C | 1170 nM
5 | CCN(CC)CCOc1ccc(/C(=C(\Cl)c2ccccc2)c2ccccc2)cc1 | 2470 nM
6 | COc1ccc(C(C(=O)NCc2ccccc2)n2c(=O)c(-c3ccco3)nc3ccccc32)cc1 (centres undefined) | 2220 nM
7 | Cc1cccc(C)c1NC(=O)C(c1ccncc1)n1c(=O)c(-c2ccco2)nc2ccccc21 (centres undefined) | inactive
8 | CSc1nnc(NC(=O)c2nc(S(=O)(=O)Cc3ccccc3F)ncc2Cl)s1 | 2770 nM
9 | Cc1ccc(C(=O)c2c(C)oc3c2C(=O)C(=O)c2ccccc2-3)cc1 | 3820 nM
10 | Cc1ccc(/C=C/C(=O)c2cc(Br)ccc2OC(=O)c2ccco2)cc1 | 922 nM
11 | CCCCCNC(=O)C(c1ccccc1F)n1c(=O)c(-c2ccco2)nc2ccccc21 (centres undefined) | 862 nM
12 | COc1ccccc1C=CC(=O)C=Cc1ccccc1OC | 4790 nM
13 | Cc1ccc(O)c(C(=O)C=Cc2ccccc2)c1 | 3140 nM
14 | O=C1C(=O)c2c(C(=O)c3ccccc3)coc2-c2ccccc21 | 2930 nM
15 | Cc1cccc(C)c1NC(=O)C(c1ccccc1)n1c(=O)c(-c2ccco2)nc2ccccc21 (centres undefined) | 5190 nM
16 | O=C(/C(=C/O)N=Nc1ccc(Cl)cc1)c1ccncc1 | 8340 nM
17 | CC(=O)C1=C(c2cccc([N+](=O)[O-])c2)N(C(C)=O)n2c(C)nnc2S1 | 2860 nM
18 | Cc1cccc(C)c1NC(=O)C(c1ccc(C(F)(F)F)cc1)n1c(=O)c(-c2ccco2)nc2ccccc21 (centres undefined) | 2220 nM
19 | CC(C)(C)NC(=O)C(c1ccc(C(F)(F)F)cc1)n1c(=O)c(-c2ccco2)nc2ccccc21 (centres undefined) | 1330 nM
20 | Cc1ccc(S(=O)(=O)N2C[C@H]3n4c(=O)ccc(=O)n4C[C@H](OC(=O)Nc4cccs4)[C@@]3(O)C2)cc1 | 7930 nM
21 | O=C(Nc1ccc2c(c1)OCCO2)C(c1ccccc1F)n1c(=O)c(-c2ccco2)nc2ccccc21 (centres undefined) | inactive
22 | CCN1C/C(=C/c2ccc(OC)c(O)c2)C(=O)/C(=C/c2ccc(OC)c(O)c2)C1 | 5660 nM
23 | CN(C)CCOc1ccc(-c2c(-c3ccccc3)sc3ccccc23)cc1 | inactive
24 | O=C(/C=C/c1ccccc1)CC(O)(c1ccccc1)C(F)(F)C(F)F (centres undefined) | 1140 nM
25 | CCOc1cc(/C=C2\CCC/C(=C\c3cc(Cl)c(O)c(OCC)c3)C2=O)cc(Cl)c1O | 4160 nM

Row | Structure (SMILES) | IC50
26 | CCCNC(=O)Nc1ccc2c(c1)N(C)C(=O)c1ccccc1S2 | 8610 nM
27 | CN(C)CCCN(C(=O)CCc1ccccc1)c1nc2ccc(Cl)cc2s1 | 7370 nM
28 | Cc1cccc(C)c1OCc1cn(CC(=O)c2ccc(O)cc2)nn1 | 2830 nM
29 | CCCCCNC(=O)C(C1CC1)n1c(=O)c(-c2ccco2)nc2ccccc21 (centres undefined) | 9790 nM
30 | O=C(/C=C/c1ccc2c(c1)OCCCO2)c1ccccc1O | 5650 nM
31 | CC1=CC(C)(C)Nc2ccc(OC(=O)c3cccnc3)cc21 | 2230 nM
32 | CC(c1nc2ccccc2[nH]1)n1c(=O)c(-c2ccco2)nc2ccccc21 (centres undefined) | 2760 nM
33 | CCCCNC(=O)Nc1ccc2c(c1)N(C)C(=O)c1ccccc1S2 | 4080 nM
34 | CC(=O)Oc1ccc(C23c4ccccc4C2(OC(C)=O)c2cc(OC(C)=O)ccc23)cc1 (centres undefined) | 720 nM
35 | COc1ccc(C(C(=O)Nc2ccc3c(c2)OCCO3)n2c(=O)c(-c3ccco3)nc3ccccc32)cc1 (centres undefined) | 7560 nM
36 | Cc1ccc(NC(=O)CSc2nnc(-c3ccco3)c(-c3ccco3)n2)cc1 | 1180 nM
37 | CCC(C(=O)OCCN(CC)CC)c1ccccc1 (centres undefined) | 2550 nM
38 | NC(=O)CCN1CCN(CCOC2Cc3cc(Cl)ccc3Sc3ccccc32)CC1 (centres undefined) | inactive
39 | CN(C)CCOC1(Cc2ccc(F)cc2)CCC(C(C)(C)C)CC1 (centres undefined) | 7330 nM
40 | O=C(NCc1ccccc1)C(c1cc2ccccc2o1)n1c(=O)c(-c2ccco2)nc2ccccc21 (centres undefined) | 2420 nM
41 | Cc1cccc(C)c1NC(=O)C(c1ccc(C#N)cc1)n1c(=O)c(-c2ccco2)nc2ccccc21 (centres undefined) | 2450 nM
42 | CS(=O)(=O)c1ccc(C(=O)NCCN2C(=O)S/C(=C\c3cccnc3)C2=O)cc1[N+](=O)[O-] | 3670 nM
43 | COc1ccc(NC(=O)C(c2cccc3ccccc23)n2c(=O)c(-c3ccco3)nc3ccccc32)cc1 (centres undefined) | inactive
44 | CN(C)CCOc1ccc(/C(=C(/CCCl)c2ccccc2)c2ccccc2)cc1 | 1380 nM
45 | CSc1nnc(NC(=O)c2nc(S(=O)(=O)Cc3ccc(C)cc3)ncc2Cl)s1 | 2510 nM
46 | COc1ccc(/C=C/C(=O)c2cc(F)ccc2OC(=O)c2ccc(OC)c(OC)c2)cc1OC | 2740 nM
47 | CSc1nnc(NC(=O)c2nc(S(=O)(=O)Cc3cccc(C)c3)ncc2Cl)s1 | 2690 nM
48 | CC1CCN(S(=O)(=O)c2ccc(NC(=O)Cc3ccccc3)cc2)CC1 | 9470 nM
49 | Cc1cc(C)c(C(CC(=O)c2cccs2)C(C#N)C#N)c(C)c1 (centres undefined) | 8600 nM
50 | CC(=O)Oc1c(Br)cc(N(C(C)=O)S(=O)(=O)c2ccccc2)c2ccccc12 | 6410 nM

Row | Structure (SMILES) | IC50
51 | CC(=O)Oc1c(Cl)cc(N(C(C)=O)S(=O)(=O)c2ccccc2)c2ccccc12 | 6550 nM
52 | O=C(NC1CCCCC1)C(c1cc2ccccc2o1)n1c(=O)c(-c2ccco2)nc2ccccc21 (centres undefined) | 1360 nM
53 | Cc1ccc(S(=O)(=O)N2C[C@@]3(O)Cn4c(=O)ccc(=O)n4C[C@@]3(OC(=O)NCC3CCCCC3)C2)cc1 | 3990 nM
54 | c1ccc(CCC2=NCCn3cccc32)cc1 | inactive
55 | CC(C)(C)NC(=O)C(c1ccccc1F)n1c(=O)c(-c2ccco2)nc2ccccc21 (centres undefined) | 2280 nM
56 | CC1CN(Cc2c(O)ccc3c2oc(=O)c2ccccc23)CC(C)O1 (centres undefined) | 2120 nM
57 | CC1=CC(C)(C)Nc2ccc(OC(=O)CN3C(=O)c4cccc5cccc(c45)C3=O)cc21 | 6890 nM
58 | O=C(/C=C/Sc1ccccc1)c1ccc(Cl)cc1 | 3380 nM
59 | CCCCCNC(=O)C(c1ccc(OC)cc1)n1c(=O)c(-c2ccco2)nc2ccccc21 (centres undefined) | 2180 nM
60 | O=C1NC(=O)N(Cc2ccc(F)cc2)C(=O)/C1=C\C=C\c1ccco1 | 1360 nM
61 | COc1ccccc1/C=C/C(=O)c1ccccc1 | 6630 nM
62 | COC(=O)c1cc(=O)n(-c2ccc(F)cc2)c(=Nc2ccc(F)cc2)s1 | 3090 nM
63 | CCSc1nnc(NC(=O)c2nc(S(=O)(=O)Cc3ccc(F)cc3)ncc2Cl)s1 | 2360 nM
64 | C#CCN(C[C@@H]1[C@@H](OC(=O)NCC2CCCCC2)[C@@H](OC(=O)NCC2CCCCC2)Cn2c(=O)ccc(=O)n21)S(=O)(=O)c1ccc(C)cc1 | 3600 nM
65 | FC(F)(F)c1cccc(NC(=S)N(CCCN2CCCC2)Cc2cccn2Cc2ccc(Cl)cc2)c1 | inactive
66 | COc1ccc(-c2cc(N)n(S(=O)(=O)c3c(F)c(F)c(F)c(F)c3F)n2)cc1OC | 6830 nM
67 | CN1[C@@H]2CC[C@H]1CC(OC1c3ccccc3CCc3ccccc31)C2 (some centres undefined) | 2490 nM
68 | Cc1nnc(NC(=O)c2nc(S(=O)(=O)Cc3ccccc3C)ncc2Cl)s1 | 2710 nM
69 | COCCNC(=O)/C(C#N)=C/c1cccc(/C=C(\C#N)C(=O)NCCOC)c1 | 727 nM
70 | CCCCC(=O)NC(c1cccc([N+](=O)[O-])c1)c1ccc2cccnc2c1O (centres undefined) | > 39800 nM (inactive)
71 | N#Cc1ccc(C(C(=O)Nc2ccc3c(c2)OCCO3)n2c(=O)c(-c3ccco3)nc3ccccc32)cc1 (centres undefined) | 7270 nM
72 | COc1ccc(C(C(=O)NC(C)(C)C)n2c(=O)c(-c3ccco3)nc3ccccc32)cc1 (centres undefined) | 1690 nM
73 | CCCCCCC=C1CCC(CN2CCCC2)C1=O (centres undefined) | 1940 nM
74 | CC(C)c1nnc(NC(=O)c2nc(S(=O)(=O)Cc3ccc(F)cc3)ncc2Cl)s1 | 1940 nM
75 | CCOC(=O)c1c(C)oc2c1c(CN1CCN(CCO)CC1)c(O)c1ccccc12 | 1810 nM

Row | Structure (SMILES) | IC50
76 | COc1ccccc1-c1cc(C(=O)NC2CCN(C)CC2)c2ccc(Cl)c(C)c2n1 | 7180 nM
77 | CN1CCC(=C2c3ccccc3CC(=O)c3sccc32)CC1 | inactive
78 | NC(=O)C(C(=O)/C=C/c1ccc(Cl)cc1)=C1SCCS1 | inactive
79 | Cc1cccc(C)c1NC(=O)C(c1ccc(-c2ccccc2)cc1)n1c(=O)c(-c2ccco2)nc2ccccc21 (centres undefined) | 1330 nM
80 | O=[N+]([O-])/C=C/c1cn(Cc2ccc(F)cc2)c2ccccc12 | 3360 nM
81 | Cc1cc(C)c(NC(=O)C[N+](C)(C)CC(O)COc2cccc3ccccc23)c(C)c1 (centres undefined) | 7490 nM
82 | O=C(Nc1ccc2c(c1)OCCO2)C(c1ccnc2ccccc12)n1c(=O)c(-c2ccco2)nc2ccccc21 (centres undefined) | inactive
83 | CC1CCN(S(=O)(=O)c2ccc(NC(=O)Cc3cccs3)cc2)CC1 | inactive
84 | CC1=CC(C)(C)Nc2ccc(OC(=O)CN3C(=O)CCC3=O)cc21 | 2200 nM
85 | CCOC(=O)c1c(NC(=O)/C=C/C(=O)O)sc(C)c1-c1ccc(C(C)(C)C)cc1 | 6740 nM
86 | O=C(NC1CCCCC1)C(c1cccc2ccccc12)n1c(=O)c(-c2ccco2)nc2ccccc21 (centres undefined) | 940 nM
87 | COc1ccc(NC(=O)c2cc3ccccc3cc2O)cc1 | 9050 nM
88 | C#CCOCCOCCOCCNc1nc(N2CCN(C(=O)CCCCCCCCCCNC(=O)[C@@H](CCSC)n3cc(CCO)nn3)CC2)nc(N2CCN(C(=O)CCCCCCCCCCNC(=O)[C@@H]([C@H](C)O)n3cc(C)nn3)CC2)n1 | > 39800 nM (inactive)
89 | CC(C)(C)NC(=O)C(c1ccc(-c2ccccc2)cc1)n1c(=O)c(-c2ccco2)nc2ccccc21 (centres undefined) | 1290 nM
90 | COc1ccc(NC(=O)C(c2ccnc3ccccc23)n2c(=O)c(-c3ccco3)nc3ccccc32)cc1 (centres undefined) | 8170 nM
91 | Cc1ccc2sc(N(CCCN(C)C)C(=O)CN3C(=O)c4ccccc4C3=O)nc2c1C | inactive
92 | COc1cc(C(C)=O)ccc1OCc1cn(CC(=O)c2ccc(O)cc2)nn1 | 4430 nM
93 | CC1Sc2ccc(S(=O)(=O)N3CCC(C(=O)NCc4ccc(Cl)cc4)CC3)cc2NC1=O (centres undefined) | inactive
94 | CCc1nnc(NC(=O)c2nc(S(=O)(=O)Cc3ccccc3)ncc2Cl)s1 | 4140 nM
95 | Cc1cccc(C)c1NC(=O)C(c1ccccc1F)n1c(=O)c(-c2ccco2)nc2ccccc21 (centres undefined) | 2730 nM
96 | CCCc1nnc(NC(=O)c2nc(S(=O)(=O)Cc3cccc(C)c3)ncc2Cl)s1 | 3410 nM
97 | COc1ccc(/C=C\C(=O)CC(O)(c2ccccc2)C(F)(F)F)cc1 (centres undefined) | 2890 nM
98 | CC(C)(C)NC(=O)C(c1ccnc2ccccc12)n1c(=O)c(-c2ccco2)nc2ccccc21 (centres undefined) | 4810 nM
99 | Oc1ccc2sc(-c3ccccc3O)c(-c3ccc(OCCN4CCCCC4)cc3)c2c1 | inactive
